The results in this text go back to ChEMBL document CHEMBL5033994, “Fragment-Based Optimization of Dihydropyrazino-Benzimidazolones as Metabotropic Glutamate Receptor-2 Positive Allosteric Modulators against Migraine” (J Med Chem, 2021).

Data set [1] can be described thus: in vivo. To be noted: Wistar, rat, iv, 3 mg/kg.
Data set [2] in a line: in vivo. To be noted: Wistar, rat, iv, 3 mg/kg. This is another data set of the same source.
Data set [3] in a line: in vivo. The settings on record: Wistar, rat, po, 10 mg/kg.
Data set [4] is described as follows: in vivo. The settings on record: Wistar, rat, po, 10 mg/kg. This is another data set of the same source.
The nature of data set [5]: in vivo. The settings on record: Wistar, rat, iv, 3 mg/kg. This is another data set of the same source.
Data set [6] in a line: in vivo. To be noted: Wistar, rat, po, 10 mg/kg. This is another data set of the same source.
Data set [7] can be described thus: in vivo. The settings on record: Wistar, rat, po, 10 mg/kg. This is another data set of the same source.
The nature of data set [8]: in vivo. To be noted: Wistar, rat, po, 10 mg/kg. This is another data set of the same source.
A short description of data set [9]: in vivo. To be noted: Wistar, rat, brain/plasma, po, 10 mg/kg.
Data set [10] can be described thus: physchem. To be noted: buffer, pH 7.4.
Data set [11] is described as follows: physchem. To be noted: buffer, pH 7.4. The source holds these as a separate data set.

≈ marks a conversion by molar mass, not a printed value.

As to `O=C1c2nc3cccc(C(F)(F)F)c3n2CCN1CC1CCC1`, the clearance (usually the rate of elimination divided by the concentration) in [1] amounted to 60 mL/min/kg. Further, the figures for the half-life in [2] and in [3] were 15.6 min and 54.6 min, respectively. Also, in [4], the Tmax – broadly, the time at which the peak concentration occurs – was found to be 30 min. Further, the area under the curve AUC(0-t) (commonly exposure summed from dosing to a finite time, without extrapolation to infinity) at 2 h in data set [5] came out at 833 ng·h/mL. This molecule registered an AUC(0-t) at 5 h in data set [6] of 1820 ng·h/mL. In data set [7], the highest level (Cmax) was 1360 ng/mL. The bioavailability (as a rule, dose-corrected exposure relative to a reference, in per cent) in data set [8] stood at 67%. Also, the Kp (commonly the ratio of the level in a tissue or fluid to that in plasma or blood) in data set [9] was 1.02. The logD (in general, the decadic logarithm of the distribution of all forms, ionised or not, between an organic phase and buffer at a given pH) in data set [10] worked out at 3.09. Also, in data set [11], the concentration in solution (solubility) came to 43 µg/mL (≈ 133 µM).
